One assay addresses human M2 receptor (Homo sapiens (Human), UniProt P08172). The assay is described as follows: Radioligand (tritiated N-methylscopolamine) binding assay, M2. Particulars: CHO cell membranes expressing human M2; 1.5 nM tritiated N-methylscopolamine; 90 min, 37° C.; read-out: Ki against M2 receptor (Table 21, M2). As for the experimental part:
Binding affinity (Ki) of compounds was measured by inhibition of radioligand binding to membranes from CHO cells expressing human M1, M2, M3, M4 and M5 receptors. Membranes were prepared by nitrogen cavitation and differential centrifugation as previously described (Hoare et al., Mol. Pharmacol. 2003 March; 63(3): 751-65). The radioligand employed was tritiated N-methylscopolamine, used at a concentration of 1.5 nM. A dose-response of twelve concentrations of compound was used, ranging from 10 μM to […]. The assay buffer was 50 mM HEPES, 100 mM NaCl, 5 mM MgCl2, 1 mM ethylenediaminetetraacetic acid, pH-adjusted to pH 7.4. Membranes, radioligand and compound were incubated together for 90 minutes at 37° C., in a total volume of 150 μl in a 96-well plate. Receptor-bound radioligand was then collected by harvesting the assay over glass fiber filters pretreated with polyethylenimine to trap the cell membranes, using rapid vacuum filtration. Harvesting and radioactivity counting was conducted as previously described (see, e.g., Hoare et al., Mol. Pharmacol. 2003 63(3):751-65); Erratum at Mol. Pharmacol. 2005 July; 68(1): 260).

The next assay addresses human M4 receptor (Homo sapiens (Human), UniProt P08173). The assay is described as follows: Radioligand (tritiated N-methylscopolamine) binding assay, M4. Particulars: Ki against the M4 receptor; membranes from CHO cells expressing human M4; tritiated N-methylscopolamine 1.5 nM; read-out: Ki. A digest of the protocol: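 Compounds were tested at twelve concentrations ranging from 10 μM to […] against 1.5 nM radioligand on CHO cell membranes expressing each subtype. Incubation lasts 90 min at 37 °C in HEPES-buffered saline with Mg2+ and EDTA, pH 7.4, and filtration then separates bound radioligand.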

human M4 receptor, sequence (P08173 whole entry): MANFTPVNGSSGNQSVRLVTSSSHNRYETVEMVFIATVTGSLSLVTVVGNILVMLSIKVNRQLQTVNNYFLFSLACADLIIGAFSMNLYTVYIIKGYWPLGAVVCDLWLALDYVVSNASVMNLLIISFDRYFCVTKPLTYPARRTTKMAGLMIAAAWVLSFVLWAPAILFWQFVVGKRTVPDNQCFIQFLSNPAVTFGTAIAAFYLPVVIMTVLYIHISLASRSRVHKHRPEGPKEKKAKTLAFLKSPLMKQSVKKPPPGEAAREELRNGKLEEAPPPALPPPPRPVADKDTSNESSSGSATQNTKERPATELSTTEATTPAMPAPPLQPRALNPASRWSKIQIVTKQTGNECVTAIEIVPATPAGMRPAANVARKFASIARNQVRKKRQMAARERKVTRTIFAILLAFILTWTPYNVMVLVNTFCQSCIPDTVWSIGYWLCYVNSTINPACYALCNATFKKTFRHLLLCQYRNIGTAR
human M2 receptor, sequence (P08172 whole entry): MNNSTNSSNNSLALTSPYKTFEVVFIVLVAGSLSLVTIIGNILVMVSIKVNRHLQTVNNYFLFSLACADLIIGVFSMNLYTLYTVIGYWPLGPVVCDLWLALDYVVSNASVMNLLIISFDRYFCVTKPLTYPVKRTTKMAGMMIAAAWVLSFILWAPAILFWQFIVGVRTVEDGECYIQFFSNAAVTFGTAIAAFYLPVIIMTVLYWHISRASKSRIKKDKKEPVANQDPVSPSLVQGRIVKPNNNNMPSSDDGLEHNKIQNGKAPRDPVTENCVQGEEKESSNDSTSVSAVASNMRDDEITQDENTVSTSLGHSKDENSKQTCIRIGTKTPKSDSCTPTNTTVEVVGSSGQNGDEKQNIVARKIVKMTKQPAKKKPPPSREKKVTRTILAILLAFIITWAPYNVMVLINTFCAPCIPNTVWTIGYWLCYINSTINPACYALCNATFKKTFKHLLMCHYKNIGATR

Consider `O=C(NCC(O)C1CCN(Cc2ccccc2)CC1)C1CCN(c2ccc(OC(F)(F)F)cc2)CC1` (stereo not drawn) [9-71, N-[2-(1-benzylpiperidin-4-yl)-2-hydroxyethyl]-1-[4-(trifluoromethoxy)phenyl]piperidine-4-carboxamide], for which the Ki (usually a measure of affinity in units of concentration, obtained from inhibition or displacement) at human M2 receptor was 100 to 1000 nM.

Take `C[C@@H]1CN(c2ncc(C#N)cn2)C[C@H](C)N1C(=O)NCCC1CCN(C2Cc3ccccc3C2)CC1` [21-4, (2R,6S)-4-(5-cyanopyrimidin-2-yl)-N-{2-[l-(2,3-dihydro-1H-inden-2-yl)piperidin-4-yl]ethyl}-2,6-dimethylpiperazine-1-carboxamide]: at human M4 receptor, the Ki was 10 to 100 nM.

`C[C@@H]1CN(c2ncc(C#N)cn2)C[C@H](C)N1C(=O)NCCC1CCN(CC2CCC2)CC1` [21-5]: at human M4 receptor, the inhibition constant (Ki) lay in the range of 100 to 1000 nM.

`CC(C)CN1CCC(CCNC(=O)N2[C@H](C)CN(c3ncc(C#N)cn3)C[C@@H]2C)CC1` [21-6]: the Ki on human M4 receptor is 100 to 1000 nM.

As for `CC(C)CCN1CCC(CCNC(=O)N2[C@H](C)CN(c3ncc(C#N)cn3)C[C@@H]2C)CC1` [21-8], the Ki at human M4 receptor was 100 to 1000 nM.

In the case of `C[C@@H]1CN(c2ncc(C#N)cn2)C[C@H](C)N1C(=O)NCCC1CCN(CC2CCCCO2)CC1` (stereo partly drawn) [21-9], the inhibitory constant (Ki) at human M4 receptor lay in the range of 100 to 1000 nM.

Turning to `C[C@@H]1CN(c2ncc(C#N)cn2)C[C@H](C)N1C(=O)NCCC1CCN(CC2(C)COC2)CC1` [21-10], at human M4 receptor, the Ki lay in the range of 100 to 1000 nM.

With `C[C@@H]1CN(c2ncc(C#N)cn2)C[C@H](C)N1C(=O)NCCC1CCN(CC2CCCS(=O)(=O)C2)CC1` (stereo partly drawn) [21-11, (2R,6S)-4-(5-cyanopyrimidin-2-yl)-N-(2-{1-[(1,1-dioxo-1-thian-3-yl)methyl]piperidin-4-yl}ethyl)-2,6-dimethylpiperazine-1-carboxamide], the inhibition constant Ki on human M4 receptor was in the range of 100 to 1000 nM.

Consider `C[C@@H]1CN(c2ncc(C#N)cn2)C[C@H](C)N1C(=O)NCCC1CCN(CC23CC(C2)C3)CC1` [21-12], for which the Ki at human M4 receptor lay in the range of 100 to 1000 nM.

Consider `C[C@@H]1CN(c2ncc(C#N)cn2)C[C@H](C)N1C(=O)NCCC1CCN(CC23C4C5C6C4C2C6C53)CC1` (stereo partly drawn) [21-13], for which the Ki on human M4 receptor fell in the range of 10 to 100 nM.

For `C[C@@H]1CN(c2cnc(C(F)(F)F)nc2)C[C@H](C)N1C(=O)NCCC1CCN(Cc2ccccc2)CC1` [22-1, (2R,6S)—N-[2-(1-benzylpiperidin-4-yl)ethyl]-2,6-dimethyl-4-[2-(trifluoromethyl)pyrimidin-5-yl]piperazine-1-carboxamide], the Ki at human M4 receptor lay in the range of 10 to 100 nM.

In the case of `C[C@@H]1CN(c2cc(F)c(F)cc2F)C[C@H](C)N1C(=O)NCCC1CCN(Cc2ccccc2)CC1` [22-6], the inhibition constant Ki on human M4 receptor was in the range of 10 to 100 nM.

`C[C@@H]1CN(c2ccc(Cl)nc2)CCN1C(=O)NCCC1CCN(Cc2ccccc2)CC1` [22-11]: the inhibition constant (Ki) on human M4 receptor was in the range of 10 to 100 nM.

With `COc1cc(N2CCN(C(=O)NCCC3CCN(Cc4ccccc4)CC3)[C@H](C)C2)ccn1` [22-16], the Ki on human M4 receptor is 10 to 100 nM.

Regarding `C[C@@H]1CN(c2ccnc(F)c2)CCN1C(=O)NCCC1CCN(Cc2ccccc2)CC1` [22-18], the Ki on human M4 receptor was in the range of 10 to 100 nM.

With `C[C@@H]1CN(c2cncnc2)CCN1C(=O)NCCC1CCN(Cc2ccccc2)CC1` [22-19], the Ki at human M4 receptor was 10 to 100 nM.

Consider `C[C@@H]1CN(c2ccc(C#N)c(N(C)C)c2)CCN1C(=O)NCCC1CCN(Cc2ccccc2)CC1` [22-26], for which the Ki on human M4 receptor lay within 10 to 100 nM.

Consider `C[C@@H]1CN(c2cnc(C#N)cn2)CCN1C(=O)NCCC1CCN(Cc2ccccc2)CC1` [22-27], for which, at human M4 receptor, the Ki is 10 to 100 nM.

As to `COc1cc(N2CCN(C(=O)NCCC3CCN(Cc4ccccc4)CC3)[C@H](C)C2)ccc1C#N` [22-28, (2R)-N-[2-(1-benzylpiperidin-4-yl)ethyl]-4-(4-cyano-3-methoxyphenyl)-2-methylpiperazine-1-carboxamide], the Ki at human M4 receptor lay in the range of 10 to 100 nM.

Turning to `C[C@@H]1CN(c2ccnc(C(F)(F)F)c2)CCN1C(=O)NCCC1CCN(Cc2ccccc2)CC1` [22-29], at human M4 receptor, the Ki was in the range of 10 to 100 nM.

As to `C[C@@H]1CN(c2cnc(C#N)nc2)C[C@H](C)N1C(=O)NCCC1CCN(Cc2ccccc2)CC1` [23-1, (2S,6R)-N-[2-(1-benzylpiperidin-4-yl)ethyl]-4-(2-cyanopyrimidin-5-yl)-2,6-dimethylpiperazine-1-carboxamide], the inhibition constant (Ki) at human M4 receptor was 100 to 1000 nM.

Turning to `C[C@@H]1CN(c2cnc(C#N)cn2)C[C@H](C)N1C(=O)NCCC1CCN(Cc2ccccc2)CC1` [23-2, (2R,6S)-N-[2-(1-benzylpiperidin-4-yl)ethyl]-4-(5-cyanopyrazin-2-yl)-2,6-dimethylpiperazine-1-carboxamide], the Ki on human M4 receptor was in the range of 10 to 100 nM.

For `C[C@@H]1CN(c2ccc(C#N)nn2)C[C@H](C)N1C(=O)NCCC1CCN(Cc2ccccc2)CC1` [23-3, (2R,6S)-N-[2-(1-benzylpiperidin-4-yl)ethyl]-4-(6-cyanopyridazin-3-yl)-2,6-dimethylpiperazine-1-carboxamide], on human M4 receptor, the inhibitory constant (Ki) is 10 to 100 nM.

For the molecule `C[C@H]1CN(c2ncc(C#N)cn2)C[C@H](C)N1C(=O)NCCC1CCN(Cc2ccccc2)CC1` [26-3], on human M4 receptor, the Ki fell in the range of 100 to 1000 nM.

For `C[C@@H]1CN(c2ncc(C(F)(F)F)cn2)C[C@@H](C)N1C(=O)NCCC1CCN(Cc2ccccc2)CC1` [26-5, (2R,6R)-N-[2-(1-benzylpiperidin-4-yl)ethyl]-2,6-dimethyl-4-[5-(trifluoromethyl)pyrimidin-2-yl]piperazine-1-carboxamide], the Ki at human M4 receptor was less than 10 nM.

As to `C[C@@H]1CN(c2ncc(C(=O)NC3CC3)cn2)C[C@H](C)N1C(=O)NCCC1CCN(Cc2ccccc2)CC1` [27-1, 2-[(3R,5S)-4-{[2-(1-benzylpiperidin-4-yl)ethyl]carbamoyl}-3,5-dimethylpiperazin-1-yl]-N-cyclopropylpyrimidine-5-carboxamide], the Ki on human M4 receptor was 10 to 100 nM.

In the case of `C[C@@H]1CN(c2ncc(C(=O)N3CCCC3)cn2)C[C@H](C)N1C(=O)NCCC1CCN(Cc2ccccc2)CC1` [27-2], at human M4 receptor, the inhibitory constant (Ki) lay in the range of 100 to 1000 nM.

In the case of `CC(C)N(C)C(=O)c1cnc(N2C[C@@H](C)N(C(=O)NCCC3CCN(Cc4ccccc4)CC3)[C@@H](C)C2)nc1` [27-3], the Ki at human M4 receptor fell in the range of 100 to 1000 nM.

With `C=CCNC(=O)c1cnc(N2C[C@@H](C)N(C(=O)NCCC3CCN(Cc4ccccc4)CC3)[C@@H](C)C2)nc1` [27-4], the Ki at human M4 receptor lay within 100 to 1000 nM.

For `C[C@@H]1CN(c2ncc(C(=O)NCC3CC3)cn2)C[C@H](C)N1C(=O)NCCC1CCN(Cc2ccccc2)CC1` [27-5], the inhibition constant (Ki) at human M4 receptor lay in the range of 100 to 1000 nM.

Consider `C[C@@H]1CN(c2ncc(C(=O)NC3CCC3)cn2)C[C@H](C)N1C(=O)NCCC1CCN(Cc2ccccc2)CC1` [27-6], for which, on human M4 receptor, the inhibition constant Ki was 100 to 1000 nM.

Take `C[C@@H]1CN(c2ncc(C(=O)NCCF)cn2)C[C@H](C)N1C(=O)NCCC1CCN(Cc2ccccc2)CC1` [27-7]: the inhibitory constant (Ki) at human M4 receptor lay in the range of 100 to 1000 nM.

As for `CCC(C)NC(=O)c1cnc(N2C[C@@H](C)N(C(=O)NCCC3CCN(Cc4ccccc4)CC3)[C@@H](C)C2)nc1` (stereo partly drawn) [27-8], the Ki at human M4 receptor was 100 to 1000 nM.

As to `CCN(C)C(=O)c1cnc(N2CCN(C(=O)NCCC3CCN(Cc4ccccc4)CC3)[C@H](C)C2)nc1` [27-9], the inhibition constant (Ki) at human M4 receptor lay within 100 to 1000 nM.

For the molecule `CNC(=O)c1cnc(N2CCN(C(=O)NCCC3CCN(Cc4ccccc4)CC3)[C@H](C)C2)nc1` [27-10], at human M4 receptor, the Ki lay in the range of 100 to 1000 nM.

As for `Cc1cc(C(=O)NCC(C)C)nc(N2CCN(C(=O)NCCC3CCN(Cc4ccccc4)CC3)[C@H](C)C2)n1` [27-11], on human M4 receptor, the Ki is 10 to 100 nM.

Take `CC(C)CNC(=O)c1cnc(N2CCN(C(=O)NCCC3CCN(Cc4ccccc4)CC3)[C@H](C)C2)nc1` [27-12]: the Ki at human M4 receptor lay within 10 to 100 nM.

Consider `Cc1cc(C(=O)NC(C)C)nc(N2CCN(C(=O)NCCC3CCN(Cc4ccccc4)CC3)[C@H](C)C2)n1` [27-13], for which the Ki on human M4 receptor was 100 to 1000 nM.

`Cc1cc(C(=O)NC2CC2)nc(N2CCN(C(=O)NCCC3CCN(Cc4ccccc4)CC3)[C@H](C)C2)n1` [27-14]: the Ki at human M4 receptor is 100 to 1000 nM.

In the case of `CC(C)NC(=O)c1cnc(N2CCN(C(=O)NCCC3CCN(Cc4ccccc4)CC3)[C@H](C)C2)nc1` [27-15], the inhibitory constant (Ki) on human M4 receptor was in the range of 100 to 1000 nM.

Regarding `CCNC(=O)c1cnc(N2CCN(C(=O)NCCC3CCN(Cc4ccccc4)CC3)[C@H](C)C2)nc1` [27-16], the Ki at human M4 receptor lay in the range of 100 to 1000 nM.

In the case of `C[C@@H]1CN(c2ncc(C(=O)N(C)C)cn2)CCN1C(=O)NCCC1CCN(Cc2ccccc2)CC1` [27-17], at human M4 receptor, the Ki lay in the range of 100 to 1000 nM.

For the molecule `CCN(C)C(=O)c1cc(C)nc(N2CCN(C(=O)NCCC3CCN(Cc4ccccc4)CC3)[C@H](C)C2)n1` [27-18], the inhibition constant Ki at human M4 receptor was in the range of 100 to 1000 nM.

For `CCNC(=O)c1cc(C)nc(N2CCN(C(=O)NCCC3CCN(Cc4ccccc4)CC3)[C@H](C)C2)n1` [27-19], at human M4 receptor, the inhibitory constant (Ki) lay in the range of 100 to 1000 nM.

For “N-(2-{1-[(4-hydroxyphenyl)methyl]piperidin-4-yl}ethyl)-4-phenoxybenzamide [11-10]”, the inhibition constant (Ki) on human M4 receptor lay within 100 to 1000 nM.

Consider “N-{2-[1-(2,2-dimethylpropyl)piperidin-4-yl]ethyl}-1-[4-(trifluoromethoxy)phenyl]piperidine-4-carboxamide [11-27]”, for which the Ki at human M4 receptor lay within 100 to 1000 nM.

For the molecule “N-{2-[1-(2-hydroxy-1-phenylethyl)piperidin-4-yl]ethyl}-1-[4-(trifluoromethoxy)phenyl]piperidine-4-carboxamide [11-12]”, on human M4 receptor, the Ki fell in the range of 100 to 1000 nM.

Consider “N-{2-[1-(3-methylbutyl)piperidin-4-yl]ethyl}-1-[4-(trifluoromethoxy)phenyl]piperidine-4-carboxamide [11-19]”, for which, on human M4 receptor, the Ki is 100 to 1000 nM.

(Values after patent US11033539B2, “Compounds of formulas (VII), (VIII), (IX), (XI), (XII), (XIII), and (XIV) as muscarinic receptor 4(M4) antagonists for treating neurological diseases” (Neurocrine Biosciences, Inc., priority 2015, dated 2021).)
